Measurements taken from US20230287044A1, “NOVEL ANTIBACTERIAL PEPTIDE AND USE THEREOF” (priority 2020, published 2023).
In brackets after ≈: the same amount, converted by molar mass. Like-named read-outs stand apart in the source and are kept apart here. Square brackets hold non-standard residues; d marks the D form. Peptide text beside a SMILES is read from it.

Tests used:
[1] = Solubility of antibacterial peptides in solution; assay type: physicochemical
[2] = tested on: MRPA (P. aeruginosa) CCARM 2180; assay type: cell-based, Pseudomonas aeruginosa; conditions: CCARM 2180, 18 h
Outline: (§1)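 Mid-log cultures grown in CAMHB and diluted to 1× 10^6 cfu/ml in PBS were mixed with an equal volume of peptide in CAMHB (80 µM to 0.63 µM twofold dilutions). MIC taken as the mean of three independent experiments.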

[3] = tested on: MRAB (A. baumannii) ATCC BAA 1605; assay type: cell-based, Acinetobacter baumannii
Outline: as §1

[4] = tested on: MRSA (S. aureus) KCCM 40510; assay type: cell-based, Staphylococcus aureus; conditions: KCCM 40510, 18 h
Outline: as §1

[5] = tested on: VRE (E. faecalis) ATCC 51575; assay type: cell-based, Enterococcus faecalis; conditions: ATCC 51575, 18 h
Outline: as §1

[6] = tested on: 30 species of Acinetobacter baumannii (A. baumannii); assay type: cell-based; conditions: against 30 species of Acinetobacter baumannii
Description: In addition, the results obtained by measuring the minimum inhibitory concentrations of KSH29, KSH42 and KSH43 against 30 species of Acinetobacter baumannii (A. baumannii) are shown in Table 4 below.
The minimum inhibitory concentrations (MIC) against the 30 species of Acinetobacter baumannii were measured in the following manner.
The strain 1605 was purchased from ATCC (American Type Culture Collection, USA). In addition, the strain 40203 was purchased from the Korean Culture Center of Microorganisms.
The COL^R refers to resistance to colistin, the TGC^R refers to resistance to tigecycline, and the TGC^I refers to tigecycline intermediate strains.

[7] = tested on: E. coli; assay: In vivo antibacterial activity in mice (survival rate after E. coli infection); parameters: species or system mice (BALB/c); conditions: E. coli 1 × 10^6 cfu/mouse subcutaneous; 100 mg/kg after 1, 24 and 48 hours; observed 7 days
Description: The results obtained by analyzing the antibacterial activity against bacteria (E. coli) according to treatment with KSH43 as a survival rate of mice (BALB/c, female. 7-weeks) are shown in FIG. 216.
Specifically, the strains were grown in CAMHB until the log phase, and then washed with PBS buffer, and infected by subcutaneous injection into mice to 1 × 10^6 cfu/mouse. After 1 hour, 24 hours, and 48 hours, KSH43 and PBS (negative control) were administered at a dose of 100 mg/kg. Thereafter, the survival rate of the mice was checked every 12 hours for 7 days and compared to measure the in vivo antibacterial activity.

SMILES	solubility at 12 h ([1]; aqueous buffer)	solubility at 12 h ([1]; plasma or biological fluid)	solubility at 12 h ([1]; water)	MIC MRPA (P. aeruginosa) CCARM 2180 [2]	MIC MRSA (S. aureus) KCCM 40510 [4]	MIC VRE (E. faecalis) ATCC 51575 [5]	MIC MRAB (A. baumannii) ATCC BAA 1605 ([3]; ATCC BAA 1605, 18 h)	MIC MRAB (A. baumannii) ATCC BAA 1605 ([3]; CAMHB, 37° C., 18 hours, average of three experiments)	MIC50 [6]	MIC90 [6]	survival rate of mice [7]
CC[C@@H](C)[C@@H](NC(=O)[C@@H](Cc1c[nH]c2ccccc12)NC(=O)[C@@H](CCCNC(=N)N)NC(=O)[C@@H](CCCNC(=N)N)NC(=O)[C@H](N)CCCNC(=N)N)C(=O)N[C@H](Cc1c[nH]c2ccccc12)C(=O)N[C@@H](C(=O)N[C@H](CC(C)C)C(=O)N[C@H](Cc1c[nH]c2ccccc12)C(=O)N[C@H](CCCCN)C(N)=O)C(C)C [KSH43, rrrwiwvlwk] (H-[dR][dR][dR][dW][dI][dW][dV][dL][dW][dK]-NH2; N-terminus assumed)	> 200 µM	> 25 µM	> 2000 µM	1.25 µM (≈ 1.87 µg/mL)	0.63 µM (≈ 0.944 µg/mL)	0.63 µM (≈ 0.944 µg/mL)		0.63 µM (≈ 0.944 µg/mL)	0.63 µM (≈ 0.944 µg/mL)	1.25 µM (≈ 1.87 µg/mL)	all mice administered with KSH43 survived for 7 days
CC[C@@H](C)[C@@H](NC(=O)[C@@H](Cc1c[nH]c2ccccc12)NC(=O)[C@H](NC(=O)[C@@H](CC(C)C)NC(=O)[C@H](N)Cc1c[nH]c2ccccc12)C(C)C)C(=O)N[C@H](Cc1c[nH]c2ccccc12)C(=O)N[C@H](CCCNC(=N)N)C(=O)N[C@H](CCCNC(=N)N)C(N)=O [KSH32, wlvwiwrr] (H-[dW][dL][dV][dW][dI][dW][dR][dR]-NH2; N-terminus assumed)	25 µM (≈ 30.3 µg/mL)	50 µM (≈ 60.7 µg/mL)	> 2000 µM	>5 µM	1.25 µM (≈ 1.52 µg/mL)	1.25 µM (≈ 1.52 µg/mL)	1.25 µM (≈ 1.52 µg/mL)				

The next lines start with results.

solubility at 12 h ([1]; aqueous buffer)	solubility at 12 h ([1]; plasma or biological fluid)	solubility at 12 h ([1]; water)	MIC MRPA (P. aeruginosa) CCARM 2180 [2]	MIC MRSA (S. aureus) KCCM 40510 [4]	MIC VRE (E. faecalis) ATCC 51575 [5]	MIC MRAB (A. baumannii) ATCC BAA 1605 ([3]; ATCC BAA 1605, 18 h)	SMILES	MIC MRAB (A. baumannii) ATCC BAA 1605 ([3]; CAMHB, 37° C., 18 hours, average of three experiments)	MIC50 [6]	MIC90 [6]	survival rate of mice [7]
> 200 µM	200 µM (≈ 283 µg/mL)	> 2000 µM	1.25 µM (≈ 1.77 µg/mL)	1.25 µM (≈ 1.77 µg/mL)	1.25 µM (≈ 1.77 µg/mL)	0.63 µM (≈ 0.891 µg/mL)	CC[C@@H](C)[C@@H](NC(=O)[C@@H](Cc1c[nH]c2ccccc12)NC(=O)[C@@H](CCCCN)NC(=O)[C@@H](CCCCN)NC(=O)[C@H](N)CCCCN)C(=O)N[C@H](Cc1c[nH]c2ccccc12)C(=O)N[C@@H](C(=O)N[C@H](CC(C)C)C(=O)N[C@H](Cc1c[nH]c2ccccc12)C(=O)N[C@H](CCCCN)C(N)=O)C(C)C [KSH46, kkkwiwvlwk] (H-[dK][dK][dK][dW][dI][dW][dV][dL][dW][dK]-NH2; N-terminus assumed)				
> 200 µM	100 µM (≈ 148 µg/mL)	> 2000 µM	>5 µM	25 µM (≈ 37.1 µg/mL)	2.5 µM (≈ 3.71 µg/mL)	5 µM (≈ 7.42 µg/mL)	CC[C@@H](C)[C@@H](NC(=O)[C@@H](Cc1c[nH]c2ccccc12)NC(=O)[C@H](NC(=O)[C@@H](CC(C)C)NC(=O)[C@@H](Cc1c[nH]c2ccccc12)NC(=O)[C@H](N)CC(=O)O)C(C)C)C(=O)N[C@H](Cc1c[nH]c2ccccc12)C(=O)N[C@H](CCCNC(=N)N)C(=O)N[C@H](CCCNC(=N)N)C(=O)N[C@H](CCCNC(=N)N)C(N)=O [KSH36, dwlvwiwrrr] (H-[dD][dW][dL][dV][dW][dI][dW][dR][dR][dR]-NH2; N-terminus assumed)				
≥ 100 µM	100 µM (≈ 134 µg/mL)	> 2000 µM	5 µM (≈ 6.71 µg/mL)	1.25 µM (≈ 1.68 µg/mL)	1.25 µM (≈ 1.68 µg/mL)	1.25 µM (≈ 1.68 µg/mL)	CC(C)[C@@H](NC(=O)[C@H](N)Cc1c[nH]c2ccccc12)C(=O)N[C@@H](C(=O)N[C@H](Cc1c[nH]c2ccccc12)C(=O)N[C@H](Cc1c[nH]c2ccccc12)C(=O)N[C@@H](C(=O)N[C@H](CCCNC(=N)N)C(=O)N[C@H](CCCNC(=N)N)C(=O)N[C@H](CCCNC(=N)N)C(N)=O)C(C)C)C(C)C [KSH40, wvvwwvrrr] (H-[dW][dV][dV][dW][dW][dV][dR][dR][dR]-NH2; N-terminus assumed)				
